The values below come from patent US8492088B2, “Engineering enzymes through genetic selection” (priority 2007, dated 2013).

Where two headings read alike, the source gives them in different places.

For assay [1] the following is noted: in vivo; cited from earlier work.
The test system of assay [2] is Heliothis virescens. The following applies: against Heliothis virescens; cited from earlier work.
Assay [3] has as its system Candida albicans. The following applies: against Candida albicans; cited from earlier work.
Assay [4] relates to Gram negative and Gram-positive bacteria. The following applies: series of Gram negative and Gram-positive bacteria; cited from earlier work.
Assay [5] concerns the target wild-type RXR (GBD:RXR) (Homo sapiens, UniProt P19793). Briefly: cell-based. The source says: (§1) Liquid Media: The method used for quantitation was modified from a method developed by Miller and known in the art.
(§2) The twelve plasmids rescued from the selective plates were retransformed into PJ69-4A to confirm that their phenotype is plasmid linked. The strain PJ69-4A was engineered to contain a Gal4 response element controlling expression of the LacZ gene, in addition to the ADE2 gene. […] The selection assay quantifies yeast growth occurring through transcriptional activation of the ADE2 gene, while the screen quantifies β-galactosidase activity occurring though transcriptional activation of the LacZ gene.
Three plasmids were used as controls in the screen and selection assays. […] This plasmid provides a measure of background noise in both the selection and screen assays.

The target of assay [6] is T1, RXR variant I268A; I310S; F313V; L436F (Homo sapiens, UniProt P19793, F313V/I268A/I310S/L436F).
T1 construct: express the Gal4 DBD fused with a variant RXR LBD (GBD:RXR); expressed in transfected cells; host or cells: Saccharomyces cerevisiae PJ69-4A
The assay is classed as cell-based. The following applies: Yeast, L436F (first line, r10).
Source text: as §1, §2

Assay [7] addresses T2, RXR variant I268A; I310S; F313V; L436F (Homo sapiens, UniProt P19793, F313V/I268A/I310S/L436F).
T2 sequence (P19793 225-462 I268A/I310S/F313V/L436F): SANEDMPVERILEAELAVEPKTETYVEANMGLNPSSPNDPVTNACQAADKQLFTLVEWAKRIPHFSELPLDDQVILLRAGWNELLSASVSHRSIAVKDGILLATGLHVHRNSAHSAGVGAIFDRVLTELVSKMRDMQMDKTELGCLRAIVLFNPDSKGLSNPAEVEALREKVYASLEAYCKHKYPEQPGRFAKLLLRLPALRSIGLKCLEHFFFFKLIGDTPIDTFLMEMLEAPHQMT
The assay is described as follows: cell-based. Also noted: species or system yeast.
Source text: as §1, §2

Assay [8] addresses RXR variant I268A; A272V; I310A; F313A; L436F (Homo sapiens, UniProt P19793, A272V/F313A/I268A/I310A/L436F). The following applies: Yeast.
Source text: as §1, §2

The target of assay [9] is RXR variant I268A; I310A; F313A; L436F (Homo sapiens, UniProt P19793, F313A/I268A/I310A/L436F). The following applies: Yeast, relative to wild type with 10 μM 9cRA.
Source text: as §1, §2

Assay [10] concerns the target RXR variant I268A; I310M; F313A; L436T (Homo sapiens, UniProt P19793, F313A/I268A/I310M/L436T). The following applies: Yeast.
Source text: as §1, §2

Assay [11] concerns the target RXR variant I268L; A271V; I310L; F313L (Homo sapiens, UniProt P19793, A271V/F313L/I268L/I310L). The following applies: Yeast.
Source text: as §1, §2

Assay [12] has as its target RXR variant I268L; I310M; F313V (Homo sapiens, UniProt P19793, F313V/I268L/I310M).
Source text: as §1, §2

The target of assay [13] is RXR variant I268L; I310V; F313I (Homo sapiens, UniProt P19793, F313I/I268L/I310V). The following applies: Yeast.
Source text: as §1, §2

The target of assay [14] is RXR variant I268V; A271V; I310L; F313V (Homo sapiens, UniProt P19793, A271V/F313V/I268V/I310L). The following applies: Yeast.
Source text: as §1, §2

Assay [15] deals with T3, RXR variant I268V; A272V; I310L; F313M (Homo sapiens, UniProt P19793, A272V/F313M/I268V/I310L).
T3 sequence (P19793 227-462 I268V/A272V/I310L/F313M): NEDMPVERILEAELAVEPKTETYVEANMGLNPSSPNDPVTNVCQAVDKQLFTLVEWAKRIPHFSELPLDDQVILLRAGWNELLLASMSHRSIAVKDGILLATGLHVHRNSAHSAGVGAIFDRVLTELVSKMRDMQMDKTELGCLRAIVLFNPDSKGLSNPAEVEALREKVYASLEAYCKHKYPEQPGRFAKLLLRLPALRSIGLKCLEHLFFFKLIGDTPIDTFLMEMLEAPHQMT
Source text: as §1, §2

In assay [16] the target is RXR variant I268V; A272V; I310M; F313S; L436M (Homo sapiens, UniProt P19793, A272V/F313S/I268V/I310M/L436M). The following applies: Yeast.
Source text: as §1, §2

Assay [17] deals with RXR variant I268V; I310V; F313S (Homo sapiens, UniProt P19793, F313S/I268V/I310V). The following applies: Yeast.
Source text: as §1, §2

Assay [18] concerns the target wtRXR (Homo sapiens, UniProt P19793). Briefly: cell-based. An excerpt:
(§3) RLU=relative light units.
(§4) Mammalian Luciferase Assay: Performed with HEK 293 cells as previously described, and known in the art.
(§5) Five variants were chosen for testing in mammalian cell culture for comparison of the activation profiles (I268A;I310A;F313A;L436F,I268V;A272V;I310L;F313M, I268A;I310S;F313A;L436F, I268V;A272V;I310M;F313S;L436M, and I286A;I310M;F313A;L436T). The genes for these variants were removed from yeast expression plasmids and ligated into mammalian expression plasmids.

Assay [19] concerns the target T2, RXR variant I268A; I310S; F313V; L436F. Briefly: cell-based.
Assay [20] addresses RXR variant I268A; I310A; F313A; L436F (Homo sapiens, UniProt P19793, F313A/I268A/I310A/L436F).
Source text: as §3, §4, §5

For assay [21], the target named is RXR variant I268A; I310M; F313A; L436T (Homo sapiens, UniProt P19793, F313A/I268A/I310M/L436T).
Source text: as §3, §4, §5

For assay [22], the target named is RXR variant I268V; A272V; I310L; F313M (Homo sapiens, UniProt P19793, A272V/F313M/I268V/I310L).
Source text: as §3, §4, §5
This is another data set of the same source.

The target of assay [23] is RXR variant I268V; A272V; I310M; F313S; L436M (Homo sapiens, UniProt P19793, A272V/F313S/I268V/I310M/L436M).
Source text: as §3, §4, §5

Assay [24] deals with T4, RXR variant I268A; A272V; I310A; F313A; L436F (Homo sapiens, UniProt P19793, A272V/F313A/I268A/I310A/L436F).
T4 construct: expressed in transfected cells; host or cells: HEK 293
The assay is described as follows: Mammalian luciferase assay in HEK 293 cells. The assay is classed as cell-based.
Source text: as §3, §4

Assay [25] has as its target T5, RXR variant I268L; A271V; I310L; F313L (Homo sapiens, UniProt P19793, A271V/F313L/I268L/I310L).
T5 construct: expressed in transfected cells; host or cells: HEK 293
The assay is described as follows: Mammalian luciferase assay in HEK 293 cells. The format is cell-based.
Source text: as §3, §4

Assay [26] has as its target T6, RXR variant Q275C;I310M;F313I (Homo sapiens, UniProt P19793, F313I/I310M/Q275C).
T6 construct: expressed in transfected cells; host or cells: yeast
The following applies: in yeast; previous best LG335 receptor Q275C;I310M;F313I; cited from earlier work.

The mark [27] stands for this setting: relative to wild type with 10 μM 9cRA.
[28] abbreviates: HEK 293, relative to wild type with 10 μM 9cRA.

Sequence of RXR variant I268L; I310M; F313V (P19793 227-458 I268L/I310M/F313V limits assumed): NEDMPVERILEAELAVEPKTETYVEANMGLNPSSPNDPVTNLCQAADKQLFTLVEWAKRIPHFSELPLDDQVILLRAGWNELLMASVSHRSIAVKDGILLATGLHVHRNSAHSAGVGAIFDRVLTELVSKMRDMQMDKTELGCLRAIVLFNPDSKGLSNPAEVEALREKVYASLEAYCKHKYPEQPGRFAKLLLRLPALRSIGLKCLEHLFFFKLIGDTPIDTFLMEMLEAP
Sequence of RXR variant I268L; I310M; F313V (Q9Y6Q9 1-1413 partner limits assumed): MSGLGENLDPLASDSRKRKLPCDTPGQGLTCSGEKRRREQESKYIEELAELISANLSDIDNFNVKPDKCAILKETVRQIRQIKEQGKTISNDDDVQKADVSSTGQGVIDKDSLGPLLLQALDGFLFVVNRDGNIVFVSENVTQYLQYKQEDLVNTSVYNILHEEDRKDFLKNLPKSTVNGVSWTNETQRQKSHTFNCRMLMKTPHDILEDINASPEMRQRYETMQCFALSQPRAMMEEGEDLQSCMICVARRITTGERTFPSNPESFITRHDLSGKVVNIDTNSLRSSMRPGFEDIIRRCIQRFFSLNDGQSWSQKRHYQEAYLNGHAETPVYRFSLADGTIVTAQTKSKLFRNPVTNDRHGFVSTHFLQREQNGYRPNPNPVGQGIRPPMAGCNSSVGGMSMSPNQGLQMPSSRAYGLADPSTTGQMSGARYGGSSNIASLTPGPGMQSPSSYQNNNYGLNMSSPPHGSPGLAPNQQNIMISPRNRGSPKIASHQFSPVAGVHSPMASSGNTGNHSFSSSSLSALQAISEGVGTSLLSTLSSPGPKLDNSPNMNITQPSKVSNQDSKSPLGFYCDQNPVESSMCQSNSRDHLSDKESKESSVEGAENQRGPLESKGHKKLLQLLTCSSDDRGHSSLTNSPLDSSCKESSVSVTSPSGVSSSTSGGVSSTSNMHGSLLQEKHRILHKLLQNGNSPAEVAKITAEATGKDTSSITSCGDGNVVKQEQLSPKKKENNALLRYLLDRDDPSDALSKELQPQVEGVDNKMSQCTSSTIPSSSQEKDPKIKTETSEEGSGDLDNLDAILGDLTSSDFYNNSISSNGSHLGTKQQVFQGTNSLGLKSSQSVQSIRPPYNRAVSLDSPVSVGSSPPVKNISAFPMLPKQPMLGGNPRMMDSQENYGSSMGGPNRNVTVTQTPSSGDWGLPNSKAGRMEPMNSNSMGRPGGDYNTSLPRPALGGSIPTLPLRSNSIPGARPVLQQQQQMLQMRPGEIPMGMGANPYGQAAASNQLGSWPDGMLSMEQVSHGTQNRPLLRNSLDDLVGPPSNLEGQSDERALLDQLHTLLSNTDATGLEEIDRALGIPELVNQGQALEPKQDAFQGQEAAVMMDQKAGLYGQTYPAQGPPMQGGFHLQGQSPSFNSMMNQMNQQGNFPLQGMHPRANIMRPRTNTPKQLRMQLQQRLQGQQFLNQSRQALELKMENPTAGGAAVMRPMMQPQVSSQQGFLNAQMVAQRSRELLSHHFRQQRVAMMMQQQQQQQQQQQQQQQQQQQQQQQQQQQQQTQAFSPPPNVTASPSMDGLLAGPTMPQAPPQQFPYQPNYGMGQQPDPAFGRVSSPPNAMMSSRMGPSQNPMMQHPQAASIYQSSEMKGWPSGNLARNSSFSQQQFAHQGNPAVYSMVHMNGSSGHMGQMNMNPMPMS
Sequence of wild-type RXR (GBD:RXR) (P19793 227-458 limits assumed): as the sequence (P19793 227-458 I268L/I310M/F313V limits assumed) above, with L42I, M84I, V87F counted along it
Sequence of wild-type RXR (GBD:RXR) (Q9Y6Q9 1-1413 partner limits assumed): as the sequence (Q9Y6Q9 1-1413 partner limits assumed) above
Sequence of RXR variant I268L; I310V; F313I (P19793 227-458 I268L/I310V/F313I limits assumed): as the sequence (P19793 227-458 I268L/I310M/F313V limits assumed) above, with M84V, V87I counted along it
Sequence of RXR variant I268L; I310V; F313I (Q9Y6Q9 1-1413 partner limits assumed): as the sequence (Q9Y6Q9 1-1413 partner limits assumed) above

As to `CO/C(=C/C(=O)N(C)C(Cc1ccccc1)c1nccs1)CC(C)C(Cl)(Cl)Cl` (stereo not shown) [Barbamide], the molluscicidal activity entry in [1] is on record as “potent mollucuscidal activity”.
On to `C/C1=C\[C@H](C)C[C@H](C)OC(=O)C[C@H](c2ccc(O)cc2)NC(=O)[C@@H](Cc2c(Br)[nH]c3ccccc23)N(C)C(=O)[C@H](C)NC(=O)[C@@H](C)C1` [Jaspamide], for which the insecticidal activity result in assay [2] is “insecticidal”. For the same compound, the fungicidal activity result in assay [3] is given as “fungicidal activity”. In assay [4], the activity against bacteria entry was “completely inactive”.
In the case of `CCCc1cc2c(cc1C(=O)c1ccc(C(=O)O)cc1)C(C)(C)CCC2(C)C` [LG335, 4-[(3-Propyl-5,5,8,8-tetramethyl-5,6,7,8-tetrahydro-2-naphtyl)carbonyl]benzoic Acid], the EC50 is above 10 µM in assay [5]; 470 nM in assay [6]; 430 nM in assay [7] (Yeast, I268A, I310S, F313V, L436F (second line, r11)); 530 nM in assay [8]; 610 nM in assay [10]; 530 nM in assay [11]. The half-maximal effective concentration (EC50) is reported as 610 nM in assay [12] (Yeast, I268L, I310M, F313V); above 2000 nM in [13]; 650 nM in [14]; 40 nM in assay [15] (in yeast, I268V;A272V;I310L;F313M); 680 nM in assay [16]; 440 nM in [17]. The concentration for a half-maximal effect (EC50) in assay [18] stood at 300 nM; in [19] (HEK 293, I268A, I310S, F313V, L436F (second line, r11)), 690 nM; in assay [20] (HEK 293), 30 nM; in assay [21] (HEK 293), 140 nM; in assay [22] (HEK 293), 1 nM; in [23] (HEK 293), 180 nM. The EC50 in [24] is 1 nM; in [25] it was 1 nM; in assay [26], 1 µM. Moreover, the “Eff (efficacy)” value is 10% in [5] (Yeast, WT, maximum increase in activation relative to wild type with 10 μM 9cRA); 60% in assay [6] (setting [27]); 30% in assay [8] (setting [27]); 70% in [9]; 10% in assay [10] (setting [27]); 20% in assay [11] (setting [27]). In addition, the “Eff (efficacy)” value is 20% in assay [12] (Yeast, I268L, I310M, F313V, relative to wild type with 10 μM 9cRA); 10% in assay [13] (setting [27]); 10% in assay [14] (setting [27]); 60% in [15] (Yeast, I268V, A272V, I310L, F313M, relative to wild type with 10 μM 9cRA); 30% in assay [16] (setting [27]); 10% in assay [17] (setting [27]). Besides, the “Eff (efficacy)” value came to 10% in assay [18] (HEK 293, WT, relative to wild type with 10 μM 9cRA); 50% in assay [20] (setting [28]); 20% in assay [21] (setting [28]); 30% in assay [22] (setting [28]); 30% in [23] (setting [28]). Besides, the Emax was 50% in assay [7] (read-out: Eff (efficacy)) and 20% in [19] (HEK293, read-out: Eff (efficacy)). In addition, the “activity in the screen assay” value in assay [12] (I268L;I310M;F313V, high basal activity) is “increase activity at micromolar concentrations”. The “improvement in EC50 over the previous best LG335 receptor, Q275C;I310M;F313I” value in assay [15] (in yeast, LG335-I268V;A272V;I310L;F313M ligand receptor pair) is reported as 25 fold.
